{
  "source": "patent US20080280862A1",
  "about": "“Methods, compositions, and kits for the treatment of pain” (priority 2007, published 2008)",
  "test_system": "carrageenan-induced pain model in rats",
  "test": "Carrageenan pain model, mechanical allodynia by Von Frey filaments",
  "type": "in vivo, Sprague-Dawley rats",
  "conditions": "for Mean AUC ± SEM: AUC from 20 minutes through 120 minutes following carrageenan injection",
  "method": "The carrageenan model is a fast, reliable model used to assess the ability of analgesics to block inflammatory pain. The analgesic effects of test article combinations on pain generation are assayed using the carrageenan-induced pain model in rats. Adult male Sprague-Dawley rats are administered study drugs intraperitoneally (vehicle, tricyclic compound (TCA), steroid or TCA/Steroid test article combinations) once daily for 2 days (day −2 and day −1) and 30 minutes prior to the carrageenan injection on day 0 (time=0). For the carrageenan injection, animals are lightly anesthetized and 0.1 ml of 2% carrageenan is injected into the plantar surface of the right hind paw. The positive control diclofenac at a dose of 25 mg/kg is administered intraperitoneally immediately before the carrageenan injection. Paw volumes (right and left) are measured using a plathysmometer before drug administration on day −2 and serve as a baseline measurement. The paw volumes are measured again two hours post carrageenan injection. The degree of mechanical allodynia is measured by a blinded observer using Von Frey filaments applied to the plantar surface of the hind paws in an increasing numerical order. Each filament increases the force applied on the paw. The filaments are applied until animal paw withdrawal is achieved. This procedure is carried out before drug administration (day −2), on day −1 and on day 0 at time=0, 20, 40, 60, 80 and 120 minutes post-carrageenan. The force (expressed in grams) required for paw withdrawal after carrageenan injection is subtracted from the force required for paw withdrawal before carrageenan injection. Results are expressed as mean change from baseline across five timepoints post carrageenan injection in Table 4.\nFor a synergy calculation, experimental data from the carrageenan study are fitted to a median-effect model and used to calculate the parameters' median-effect dose (Dm), slope (m), correlation coefficient (r), combination index (CI) and dose-reduction index (DRI). In addition, the probability of pain inhibition occurring after single-component (nortriptyline) versus the combination drug treatments are calculated from the negative change from baseline data using a Bayesian sensitivity analysis. The likelihood of pain inhibition is characterized for nortriptyline administered alone (1 mg/kg or 3 mg/kg) versus the fixed-dose combination treatments [prednisolone (0.3 mg/kg):nortriptyline (1 mg/kg) or prednisolone (1 mg/kg):nortriptyline (3 mg/kg)] each evaluated at 60 and 80 minutes for analgesic effect.\nIn another example, the effects of test article combinations on pain inhibition were assayed using the carrageenan model in rodents. Desipramine was tested alone and in combination at 0.3, 1, and 3 mg/kg and prednisolone was tested similarly at 0.3, 1 and 3 mg/kg IP.",
  "data": [
    {"smiles": "C[C@]12C=CC(=O)C=C1CC[C@@H]1[C@@H]2[C@@H](O)C[C@@]2(C)[C@H]1CC[C@]2(O)C(=O)CO", "note": "[Prednisolone]", "values": [
      {"measurement": "Mean AUC ± SEM", "setting": "0.3 mg/Kg", "result": "2302 ± 634.46"},
      {"measurement": "Mean AUC ± SEM", "setting": "1 mg/Kg", "result": "1583 ± 574.15"},
      {"measurement": "Mean change from baseline ± SEM", "setting": "Experiment One, 3 mg/kg, 20 minutes", "result": "1.10 ± 9.30", "unit": "g"},
      {"measurement": "Mean change from baseline ± SEM", "setting": "Experiment One, 3 mg/kg, 40 minutes", "result": "-52.01 ± 12.52", "unit": "g"},
      {"measurement": "Mean change from baseline ± SEM", "setting": "Experiment One, 3 mg/kg, 60 minutes", "result": "-101.90 ± 15.02", "unit": "g"},
      {"measurement": "Mean change from baseline ± SEM", "setting": "Experiment One, 3 mg/kg, 80 minutes", "result": "-159.70 ± 16.77", "unit": "g"},
      {"measurement": "Mean change from baseline ± SEM", "setting": "Experiment One, 3 mg/kg, 120 minutes", "result": "-212.90 ± 20.82", "unit": "g"},
      {"measurement": "Mean change from baseline ± SEM", "setting": "Experiment One, 10 mg/kg, 20 minutes", "result": "5.60 ± 6.14", "unit": "g"},
      {"measurement": "Mean change from baseline ± SEM", "setting": "Experiment One, 10 mg/kg, 40 minutes", "result": "-44.30 ± 11.47", "unit": "g"},
      {"measurement": "Mean change from baseline ± SEM", "setting": "Experiment One, 10 mg/kg, 60 minutes", "result": "-97.50 ± 14.33", "unit": "g"},
      {"measurement": "Mean change from baseline ± SEM", "setting": "Experiment One, 10 mg/kg, 80 minutes", "result": "-147.30 ± 16.72", "unit": "g"},
      {"measurement": "Mean change from baseline ± SEM", "setting": "Experiment One, 10 mg/kg, 120 minutes", "result": "-193.70 ± 18.07", "unit": "g"},
      {"measurement": "Mean change from baseline ± SEM", "setting": "Experiment One, 20 mg/kg, 20 minutes", "result": "-29.40 ± 5.10", "unit": "g"},
      {"measurement": "Mean change from baseline ± SEM", "setting": "Experiment One, 20 mg/kg, 40 minutes", "result": "-82.60 ± 5.59", "unit": "g"},
      {"measurement": "Mean change from baseline ± SEM", "setting": "Experiment One, 20 mg/kg, 60 minutes", "result": "-135.80 ± 7.21", "unit": "g"},
      {"measurement": "Mean change from baseline ± SEM", "setting": "Experiment One, 20 mg/kg, 80 minutes", "result": "-189.00 ± 8.41", "unit": "g"},
      {"measurement": "Mean change from baseline ± SEM", "setting": "Experiment One, 20 mg/kg, 120 minutes", "result": "-246.20 ± 12.02", "unit": "g"},
      {"measurement": "Mean change from baseline ± SEM", "setting": "Experiment One, 35 mg/kg, 20 minutes", "result": "-13.60 ± 7.52", "unit": "g"},
      {"measurement": "Mean change from baseline ± SEM", "setting": "Experiment One, 35 mg/kg, 40 minutes", "result": "-73.60 ± 7.52", "unit": "g"},
      {"measurement": "Mean change from baseline ± SEM", "setting": "Experiment One, 35 mg/kg, 60 minutes", "result": "-130.20 ± 7.26", "unit": "g"},
      {"measurement": "Mean change from baseline ± SEM", "setting": "Experiment One, 35 mg/kg, 80 minutes", "result": "-176.60 ± 10.69", "unit": "g"},
      {"measurement": "Mean change from baseline ± SEM", "setting": "Experiment One, 35 mg/kg, 120 minutes", "result": "-216.20 ± 11.39", "unit": "g"},
      {"measurement": "Mean change from baseline ± SEM", "setting": "Experiment Two, first set of rows, 0.3 mg/kg, 20 minutes", "result": "4.79 ± 7.92", "unit": "g"},
      {"measurement": "Mean change from baseline ± SEM", "setting": "Experiment Two, first set of rows, 0.3 mg/kg, 40 minutes", "result": "16.77 ± 5.63", "unit": "g"},
      {"measurement": "Mean change from baseline ± SEM", "setting": "Experiment Two, first set of rows, 0.3 mg/kg, 60 minutes", "result": "19.7 ± 5.68", "unit": "g"},
      {"measurement": "Mean change from baseline ± SEM", "setting": "Experiment Two, first set of rows, 0.3 mg/kg, 80 minutes", "result": "24.31 ± 6.40", "unit": "g"},
      {"measurement": "Mean change from baseline ± SEM", "setting": "Experiment Two, first set of rows, 0.3 mg/kg, 120 minutes", "result": "25.57 ± 6.79", "unit": "g"},
      {"measurement": "Mean change from baseline ± SEM", "setting": "Experiment Two, first set of rows, 1 mg/kg, 20 minutes", "result": "27.60 ± 5.74", "unit": "g"},
      {"measurement": "Mean change from baseline ± SEM", "setting": "Experiment Two, first set of rows, 1 mg/kg, 40 minutes", "result": "28.64 ± 5.42", "unit": "g"},
      {"measurement": "Mean change from baseline ± SEM", "setting": "Experiment Two, first set of rows, 1 mg/kg, 60 minutes", "result": "25.54 ± 6.04", "unit": "g"},
      {"measurement": "Mean change from baseline ± SEM", "setting": "Experiment Two, first set of rows, 1 mg/kg, 80 minutes", "result": "23.77 ± 6.08", "unit": "g"},
      {"measurement": "Mean change from baseline ± SEM", "setting": "Experiment Two, first set of rows, 1 mg/kg, 120 minutes", "result": "35.14 ± 5.26", "unit": "g"},
      {"measurement": "Mean change from baseline ± SEM", "setting": "Experiment Two, second set of rows, 0.3 mg/kg, 20 minutes", "result": "0.00 ± 7.42", "unit": "g"},
      {"measurement": "Mean change from baseline ± SEM", "setting": "Experiment Two, second set of rows, 0.3 mg/kg, 40 minutes", "result": "-4.86 ± 4.86", "unit": "g"},
      {"measurement": "Mean change from baseline ± SEM", "setting": "Experiment Two, second set of rows, 0.3 mg/kg, 60 minutes", "result": "0.00 ± 0.00", "unit": "g"},
      {"measurement": "Mean change from baseline ± SEM", "setting": "Experiment Two, second set of rows, 0.3 mg/kg, 80 minutes", "result": "4.86 ± 4.86", "unit": "g"},
      {"measurement": "Mean change from baseline ± SEM", "setting": "Experiment Two, second set of rows, 0.3 mg/kg, 120 minutes", "result": "31.43 ± 5.54", "unit": "g"},
      {"measurement": "Mean change from baseline ± SEM", "setting": "Experiment Two, second set of rows, 1 mg/kg, 20 minutes", "result": "9.71 ± 6.27", "unit": "g"},
      {"measurement": "Mean change from baseline ± SEM", "setting": "Experiment Two, second set of rows, 1 mg/kg, 40 minutes", "result": "0.00 ± 10.49", "unit": "g"},
      {"measurement": "Mean change from baseline ± SEM", "setting": "Experiment Two, second set of rows, 1 mg/kg, 60 minutes", "result": "16.14 ± 7.73", "unit": "g"},
      {"measurement": "Mean change from baseline ± SEM", "setting": "Experiment Two, second set of rows, 1 mg/kg, 80 minutes", "result": "24.14 ± 7.56", "unit": "g"},
      {"measurement": "Mean change from baseline ± SEM", "setting": "Experiment Two, second set of rows, 1 mg/kg, 120 minutes", "result": "12.86 ± 13.38", "unit": "g"},
      {"measurement": "decrease of median-effect dose (Dm) after co-administration compared to the monotherapy", "setting": "median-effect model, prednisolone/nortriptyline 1:3 fixed ratios", "result": 10, "unit": "fold"}
    ]}
  ]
}
